Reference: patent US9556196B2, “Anti-platelet compound addition salt” (GUANGZHOU HEERSHI PHARMA DEVELOPMENT CO., LTD, priority 2011, dated 2017)
Counter-ions that a name gives are not always drawn. Like-named read-outs stand apart in the source and are kept apart here.

Columns and labels:
[1] = Solubility test for several solid acid addition salts; assay type: physicochemical
Procedure: The Solubility Test for Several Solid Acid Addition Salt
In general, it is necessary for a drug with good bioavailability to have a good solubility. Typically, the desired solubility of a drug in a pH range of 1-7.5 is at least 1 mg/ml.

wistar rat [2] = assay: Current injury carotid artery thrombosis method (time of thrombosis formation); assay type: in vivo; conditions: oral gavage, consecutive 3 days, 2 hours after the last administration
Procedure: To compare the pharmacologic effect between the screened salts and the free compound of formula I, the following arterial thrombosis test was carried out with clopidogrel as the positive drug.
I. Investigation on the Time of Thrombosis Formation,
(§1) Animal: wistar rat, 220-260 g in weight, male, 6-8 each group.
Grouping: control group, positive drug group (clopidogrel, 10 mg/kg), free compound of formula I, hydrochloride of the compound of formula I and L-camphor sulfonate of the compound of formula I (two dosages for each group, 3 and 9 mg/kg respectively based on the free compound of formula I).
Method: current injury carotid artery thrombosis method and platelet aggregation test.
Drug Administration: oral gavage.
Index observed: the drug was administrated for consecutive 3 days. 2 hours after the last administration, current injury carotid artery thrombosis method was carried out to observe the time of thrombosis formation. Femoral artery blood was sampled and separated to obtain the platelet. The effect on platelet aggregation was investigated with inducing agent ADP for each group, and at the same time, the bleeding time was determined.

wistar rat [3] = assay: Arteriovenous shunt thrombosis in polyethylene tube method (weight of thrombosis); assay type: in vivo; conditions: oral gavage, consecutive 3 days, 2 hours after the last administration, shunt lasted 15 min, wet or dry weight not stated
Procedure: II. Investigation on the Weight of Thrombosis
as §1
Grouping: the same as above.
Method: Arteriovenous shunt thrombosis in polyethylene tube method.
Index Observed The drug was administrated for consecutive 3 days. 2 hours after the last administration, arteriovenous anastomosis thrombosis was lasted for 15 min, the wet weight and dry weight of the thrombosis formed was investigated.

[4] = Stability of the free compound in aqueous solution with weak acid or base; assay type: physicochemical; conditions: presence of weak acid or base in an aqueous solution for a period of time; produces degradation products
[5] = Water solubility of the free compound (inventor's research); assay type: physicochemical
[6] = Accelerated stability test of the sulfonates formulated into tablets or capsules; assay type: physicochemical; conditions: tablets or capsules with excipients, 50° C.±2° C., relative humid of 75% ±5%, end of the third month, TLC, stable = no occurrence of impurity
Procedure: A solid active ingredient with excellent stability is necessary for a solid formulation. To screen a suitable salt with chemical stability, the sulfonates prepared above was formulated into tablets or capsules with powdered excipients. The tablets included microcrystalline cellulose and anhydrous calcium dihydrogen phosphate with a ratio of 1:1. The capsules included Mannitol and Corn starch with a ratio of 4:1. And then, the tablets and the capsules were placed at the temperature of 50° C.±2° C. (incubator with constant temperature and humidity) with relative humid of 75% ±5% (saturated sodium chloride solution) for accelerated test. Sampling at the end of the third month, the tablets and the capsules were crushed and extracted with methanol:chloroform (1:1), and TLC was used to check the stability of the product and the salt was deemed as stable with no occurrence of impurity.

[7] = 3 mg/kg based on the free compound of formula I
[8] = 9 mg/kg based on the free compound of formula I

| Compound | Thrombosis formation time (wistar rat [2]; [7]) | Thrombosis formation time (wistar rat [2]; [8]) | Weight of thrombosis (wistar rat [3]; [7]) | Weight of thrombosis (wistar rat [3]; [8]) | Solubility [1] | Stability [6] | other results |
| --- | --- | --- | --- | --- | --- | --- | --- |
| COC(=O)C(c1ccccc1Cl)N1CCc2sc(OC(=O)c3ccccc3OC(C)=O)cc2C1 (centres unmarked) [Benzenesulfonate] | – | – | – | – | – | – | Solubility ([1]; read-out: Solubility): 2500 µg/mL |
| COC(=O)[C@H](c1ccccc1Cl)N1CCc2sccc2C1 [Clopidogrel, clopidogrel, reference compound] | – | – | – | – | – | – | Thrombosis formation time (wistar rat [2]; 10 mg/kg): 249.9 ± 58.0 s; Weight of thrombosis (wistar rat [3]; 10 mg/kg): 3.2 ± 0.5 mg |
| COC(=O)C(c1ccccc1Cl)N1CCc2sc(OC(=O)c3ccccc3OC(C)=O)cc2C1 (centres unmarked) [Free Base, methyl 2-(2-chlorophenyl)-2-(2-acetyl-salicylic acyloxy-4,5,6,7-tetrahydro-thieno[3,2-C]pyridine)-5-acetate] | 165 ± 22.4 s | 261 ± 54.3#,& s | 4.0 ± 0.6 mg | 3.0 ± 0.5#,& mg | – | – | Stability (in words) [4]: not stable enough; Water solubility (in words) [5]: almost insoluable in water |
| COC(=O)C(c1ccccc1Cl)N1CCc2sc(OC(=O)c3ccccc3OC(C)=O)cc2C1 (centres unmarked) [Hydrobromide] | – | – | – | – | 500 µg/mL | – | – |
| COC(=O)C(c1ccccc1Cl)N1CCc2sc(OC(=O)c3ccccc3OC(C)=O)cc2C1 (centres unmarked) [Hydrochloride] | 210.4 ± 51.1 s | 319.6 ± 35.2#,H,&,Y s | 3.2 ± 0.7#,Y mg | 2.8 ± 0.5 mg | 20 µg/mL | – | – |
| COC(=O)C(c1ccccc1Cl)N1CCc2sc(OC(=O)c3ccccc3OC(C)=O)cc2C1 [L-camphor sulfonate] | 250.4 ± 35.2 ,Y,* s | 360.2 ± 55.9#,H,&,Y,* s | 3.0 ± 0.7#,Y mg | 2.5 ± 0.4 H,&,Y mg | 4700 µg/mL | Stable | Stability ([6]; listed as camphor sulfonate): the most stable one |
| COC(=O)C(c1ccccc1Cl)N1CCc2sc(OC(=O)c3ccccc3OC(C)=O)cc2C1 (centres unmarked) [Methanesulfonate] | – | – | – | – | 8200 µg/mL | Stable | – |
| COC(=O)C(c1ccccc1Cl)N1CCc2sc(OC(=O)c3ccccc3OC(C)=O)cc2C1 (centres unmarked) [P-toluenesulfonate] | – | – | – | – | 1200 µg/mL | Stable | – |
